Results on eleven molecules are retold here after BindingDB's records for doi:10.1124/mol.112.080291 (University of California San Diego, 2014).

What all share (assay): Synthesizing Selective Agonists for the ?7 Nicotinic Receptor with in situ Click-Chemistry on Acetylcholine Binding Protein Templates.
Assay [1] concerns the target Neuronal acetylcholine receptor subunit alpha-4 (Homo sapiens, UniProt P43681). The following applies: pH 7.4; 37 °C. The procedure: (§1) Assay Description 2 Assays used to generate Ki or EC50 values. 1) SPA Assay - Quick screen binding assays were performed using 100 l of 0.2 mg/ml anti-mouse SPA antibody-binding beads (Amersham Biosciences) mixed with 33.6 g of monoclonal anti-FLAG M2 antibody from mouse (Sigma) in 0.1 M NaPO4 buffer, pH 7.0 (SPA mixture). Media (5l) collected 2 days after transfection were added to the mixture and finally 10 l of (+)-[3H]epibatidine (PerkinElmer Life Sciences) was added at a final concentration of 10 nM. Solutions were each counted for 1 min on either a Beckman LS 6500 liquid scintillation counter or Wallac 1450 Microbeta Trilux. Negative and positive controls consisted of media (5 l) from the respective transfections. Nonexpressing mutants were transfected and verified de novo in triplicate. Western immunoblots were also performed upon media (15 l) from transfections to verify the lack of expression. Competition curves and direct binding were measured following the protocol p

The target in assay [2] is Acetylcholine-binding protein (Lymnaea stagnalis, UniProt P58154). The following applies: pH 7.4; 20 °C. The procedure: as §1
Chain of Acetylcholine-binding protein (P58154 whole entry): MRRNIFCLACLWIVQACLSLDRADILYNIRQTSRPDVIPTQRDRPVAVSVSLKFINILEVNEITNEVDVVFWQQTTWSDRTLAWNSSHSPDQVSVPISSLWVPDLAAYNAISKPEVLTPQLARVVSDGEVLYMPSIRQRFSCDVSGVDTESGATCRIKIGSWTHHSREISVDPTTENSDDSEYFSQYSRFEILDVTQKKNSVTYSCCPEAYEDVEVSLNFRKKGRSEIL
Assay [3] deals with T1, Soluble acetylcholine receptor (Aplysia californica, UniProt Q8WSF8).
T1 sequence (Q8WSF8 whole entry): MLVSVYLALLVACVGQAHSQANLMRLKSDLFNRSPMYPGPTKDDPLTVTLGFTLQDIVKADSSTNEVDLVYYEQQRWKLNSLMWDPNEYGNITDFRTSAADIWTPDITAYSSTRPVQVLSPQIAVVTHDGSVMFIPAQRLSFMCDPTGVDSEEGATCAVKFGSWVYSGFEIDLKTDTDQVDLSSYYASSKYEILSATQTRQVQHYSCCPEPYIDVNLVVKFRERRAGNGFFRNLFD
The following applies: pH 7.4; 20 °C. Here is the method: as §1

Assay [4] deals with Neuronal acetylcholine receptor subunit alpha-7 (Homo sapiens, UniProt P36544). To be noted: pH 7.4; 37 °C. The procedure: as §1
Chain of Neuronal acetylcholine receptor subunit alpha-7 (P36544 whole entry): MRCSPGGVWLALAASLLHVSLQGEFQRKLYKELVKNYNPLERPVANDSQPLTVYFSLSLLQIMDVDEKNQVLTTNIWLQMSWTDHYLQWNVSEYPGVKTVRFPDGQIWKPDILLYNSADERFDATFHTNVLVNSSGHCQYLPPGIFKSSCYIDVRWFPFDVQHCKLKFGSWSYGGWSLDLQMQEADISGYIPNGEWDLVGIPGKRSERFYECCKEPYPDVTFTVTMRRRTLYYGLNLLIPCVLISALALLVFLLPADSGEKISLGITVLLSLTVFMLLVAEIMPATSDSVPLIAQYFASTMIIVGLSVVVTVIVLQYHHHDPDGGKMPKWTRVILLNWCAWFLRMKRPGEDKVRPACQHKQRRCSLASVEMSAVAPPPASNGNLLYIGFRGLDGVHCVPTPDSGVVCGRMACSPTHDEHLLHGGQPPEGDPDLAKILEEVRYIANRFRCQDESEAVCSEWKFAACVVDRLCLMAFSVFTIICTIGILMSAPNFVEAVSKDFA
Assay [5] addresses T2, 5-hydroxytryptamine receptor 3A (Mus musculus, UniProt P23979).
T2 sequence (P23979 whole entry): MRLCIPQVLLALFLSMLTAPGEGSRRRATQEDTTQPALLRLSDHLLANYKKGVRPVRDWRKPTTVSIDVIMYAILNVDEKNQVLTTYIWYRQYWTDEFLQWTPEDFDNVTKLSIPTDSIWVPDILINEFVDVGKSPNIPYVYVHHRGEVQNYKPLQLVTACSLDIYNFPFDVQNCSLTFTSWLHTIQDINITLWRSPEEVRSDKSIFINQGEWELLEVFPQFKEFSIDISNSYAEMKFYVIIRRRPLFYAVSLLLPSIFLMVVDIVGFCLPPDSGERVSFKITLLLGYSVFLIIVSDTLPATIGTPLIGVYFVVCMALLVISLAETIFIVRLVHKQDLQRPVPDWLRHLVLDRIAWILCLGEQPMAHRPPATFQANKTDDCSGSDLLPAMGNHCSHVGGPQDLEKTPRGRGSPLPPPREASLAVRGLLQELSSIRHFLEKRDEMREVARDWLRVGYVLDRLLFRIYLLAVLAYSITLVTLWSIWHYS
To be noted: pH 7.4; 37 °C. The procedure:
as §1

Where “and” joins values, the source holds several entries; their conditions need not be identical. Identical values can stand only once. Where only a bound is given, the exact number is not on record here.

Chain of Neuronal acetylcholine receptor subunit alpha-4 (P43681 whole entry): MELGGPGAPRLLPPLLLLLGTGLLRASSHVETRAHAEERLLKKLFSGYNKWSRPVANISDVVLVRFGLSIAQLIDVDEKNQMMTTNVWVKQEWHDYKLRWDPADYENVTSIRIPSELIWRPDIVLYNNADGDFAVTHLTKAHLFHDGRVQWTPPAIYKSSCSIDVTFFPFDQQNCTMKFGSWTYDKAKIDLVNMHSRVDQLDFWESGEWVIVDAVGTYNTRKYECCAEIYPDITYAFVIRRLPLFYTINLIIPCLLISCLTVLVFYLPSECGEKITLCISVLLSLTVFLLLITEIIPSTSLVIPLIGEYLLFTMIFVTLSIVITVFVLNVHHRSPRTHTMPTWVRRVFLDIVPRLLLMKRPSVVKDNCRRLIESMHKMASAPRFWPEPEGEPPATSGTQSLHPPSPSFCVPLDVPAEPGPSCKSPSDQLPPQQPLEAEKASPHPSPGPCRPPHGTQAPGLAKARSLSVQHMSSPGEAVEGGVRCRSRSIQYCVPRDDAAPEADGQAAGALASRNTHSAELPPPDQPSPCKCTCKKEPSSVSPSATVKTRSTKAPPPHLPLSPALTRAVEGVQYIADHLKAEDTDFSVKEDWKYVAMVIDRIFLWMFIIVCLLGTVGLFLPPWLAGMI

For orientation: Ki means the equilibrium dissociation constant of an inhibitor or competing ligand from its target. Read a high Ki as lower affinity. By EC50 is commonly meant the concentration giving half of the maximal effect. For `Cn1nncc1COc1cc(=O)n(C)c2ccccc12` [alpha7 agonists 1'], the Ki in assay [1] is 30000 nM; in assay [2] it was 60 nM; in assay [3], 1400 nM and 170 nM; in assay [5], greater than 30000 nM. This molecule yielded an EC50 in assay [4] of 6000 nM.

As to `CCC[N+](C)(C)CCn1nncc1COc1cc(=O)n(C)c2ccccc12` [2'], the inhibition constant (Ki) is greater than 30000 nM in assay [1]; 40 nM in assay [2]; 800 nM and 210 nM in assay [3]; greater than 30000 nM in assay [5]. The EC50 in assay [4] is 4200 nM.

On to `C[N+]1(C)[C@@H]2CC[C@H]1C[C@H](n1cc(CNC(=O)N3c4ccccc4CCc4ccccc43)nn1)C2` [23q], for which the inhibition constant Ki in assay [1] was 30000 nM; in assay [2], 500 nM; in assay [3] it was 420 nM and 1000 nM and 2000 nM; in assay [5] it was greater than 30000 nM. Further, the half-maximal effective concentration (EC50) in assay [4] was determined as 8000 nM.

For `C[N+]1(C)[C@@H]2CC[C@H]1C[C@H](n1cc(-c3cc(C(F)(F)F)cc(C(F)(F)F)c3)nn1)C2` [17q], the Ki in assay [1] is 5000 nM; in assay [2], 130 nM; in assay [3], 110 nM and 300 nM and 400 nM; in assay [5], 8000 nM. Besides, the 50% effective concentration (EC50) in assay [4] was 900 nM.

As to `CN1[C@@H]2CC[C@H]1C[C@H](n1cc(CSc3nc4ccccc4s3)nn1)C2` [15t], the inhibitory constant (Ki) in assay [1] was 32000 nM; in assay [2] it was 40 nM; in assay [3], 240 nM and 140 nM and 110 nM; in assay [5], 32000 nM. It took 12000 nM to reach a half-maximal effect in assay [4] (EC50).

Consider `CN1[C@@H]2CC[C@H]1C[C@H](n1cc(C3(O)CCCCC3)nn1)C2` [11t], for which the inhibition constant Ki in assay [1] is greater than 30000 nM; in assay [2], greater than 5000 nM; in assay [3] it was greater than 5000 nM; in assay [5], greater than 30000 nM. The molecule also had a concentration for a half-maximal effect (EC50) in assay [4] greater than 30000 nM.

For `Cn1c(=O)cc(OCc2cnnn2CCC[N+]2(C)CCCC2)c2ccccc21` [5'], the Ki in assay [1] is 40000 nM; in assay [2] it was 600 nM; in assay [3] it was 1400 nM and 800 nM; in assay [5], greater than 30000 nM. A half-maximal response in assay [4] (EC50) required 2000 nM.

Turning to `CN1[C@@H]2CC[C@H]1C[C@H](n1cc(CNS(=O)(=O)c3ccc([N+](=O)[O-])cc3)nn1)C2` [16t], the Ki in assay [1] is greater than 30000 nM; in assay [2], greater than 5000 nM; in assay [3], greater than 5000 nM; in assay [5], greater than 30000 nM. Also, the 50% effective concentration (EC50) in assay [4] was found to be 5000 nM.

Take `CN1[C@@H]2CC[C@H]1C[C@H](n1cc(C(O)(c3ccccc3)C(F)(F)F)nn1)C2` (stereo not given in full) [19t]: the inhibition constant Ki was greater than 30000 nM in assay [1], greater than 5000 nM in assay [2], greater than 5000 nM in assay [3] and greater than 30000 nM in assay [5]. The same molecule showed a 50% effective concentration (EC50) in assay [4] greater than 30000 nM.

`C[N+]1(C)[C@@H]2CC[C@H]1C[C@H](n1cc(COc3ccccc3-c3ccno3)nn1)C2` [14q]: the inhibition constant Ki in assay [1] is greater than 30000 nM; in assay [2], 50 nM; in assay [3] it was 140 nM and 170 nM and 96 nM; in assay [5], greater than 30000 nM. In assay [4], this molecule yielded an EC50 of 2000 nM.

Take `CN1CC=C(OCc2cnnn2C2CC3CCC(C2)[N+]3(C)C)c2ccccc21` (stereo not given) [4']: the inhibition constant (Ki) in assay [1] is 23000 nM; in assay [2], 2 nM; in assay [3], 300 nM and 100 nM; in assay [5], 900 nM. The molecule also returned a concentration for a half-maximal effect (EC50) in assay [4] of 600 nM.
